# Where a SMILES comes first, the peptide text is derived from it.
# Assays:
# mushroom tyrosinase = experiment: Tyrosinase inhibition assay; type: biochemical
# Experimental: To assess tyrosinase inhibitory activity, serial dilutions of the synthesized peptide and the positive control, β-arbutin, were prepared. In a 96-well plate, 10 μL of sample solution was mixed with 110 μL of 0.10 M sodium phosphate buffer (pH 6.5), followed by the addition of 10 μL of mushroom tyrosinase solution (1500 U/mL) and 20 μL of 1.50 mM L-tyrosine. The reaction mixture was then incubated at 37 °C for 10 min. The absorbance was measured at an appropriate wavelength (475 nm) using a microplate reader and the percentage of tyrosinase inhibition was calculated using Equation (3).
# Tyrosinase inhibition (%):(3) 100−b−b^′/a−a^′×100
# (§1) a: Absorbance after reaction of stock solution.
# (§2) b: Absorbance after reaction of sample solution.
# a′, b′: Absorbance measured by substituting the buffer for mushroom tyrosinase.
# MMP-1 = experiment: UV-induced MMP-1 expression inhibition (ELISA) in human dermal fibroblasts CCD-986sk; type: cell-based
# Experimental: To evaluate the inhibitory effect on MMP-1 expression, TGF-β1 (10 ng/mL) was used as the positive control. CCD-986sk cells were seeded into 24-well culture plates at a density of 1.5 × 10^4 cells/well and cultured for 24 h in IMDM supplemented with 10% FBS and 1% penicillin–streptomycin. The cells were then incubated in serum-free IMDM for 6 h to induce starvation, washed with 1 mL of DPBS, and irradiated with UV (5 J/cm^2). UV irradiation (5 J/cm^2) was performed under non-cytotoxic conditions previously reported to induce MMP-1 expression. The test samples were diluted in serum-free IMDM, applied to the cells, and incubated for 48 h.
# MMP-1 Expression Inhibition (%):(4) 100−b/a×100
# (§3) a: Expression of the corrected untreated group.
# (§4) b: Expression of the corrected sample treatment group.
# (§5) Protein content was measured using a Pierce BCA Protein Assay kit. After cell culture, 20 μL of the culture medium was mixed with 200 μL of the Pierce BCA Protein Assay reagent mixture and incubated at 37 °C for 30 min. The absorbance was then measured at 570 nm. The protein concentration was determined using an Albumin Standard as a reference.
# type I procollagen = experiment: Type I procollagen expression (ELISA) in human fibroblasts; type: cell-based
# Experimental: ELISA was performed using a Type I Procollagen C-Peptide EIA Kit. Antibody-POD Conjugate solution (100 μL/well) was dispensed into the provided well strips, followed by the addition of 20 μL/well of standard solution or sample. After mixing, the plates were incubated at 37 °C for 3 h. Following incubation, the supernatants were discarded and wells were washed four times with wash buffer. Subsequently, 100 μL/well of Substrate Solution (TMBZ) was added and incubated at room temperature for 15 min, after which 100 μL/well of stop solution was added to terminate the reaction. Absorbance was measured at 450 nm using a multiplate reader. The expression levels of type I procollagen were compared and stimulation rate was calculated according to Equation (5).
# Type I Procollagen Expression Promotion Rate (%):(5) 100−b/a×100
# as §3, §4, §5
# [1] = DPPH radical-scavenging assay
# Experimental: To assess the antioxidant activity of the test samples, serial dilutions of the synthesized peptides were prepared, using ascorbic acid as a positive control. Each reaction mixture consisted of 12.5 μL of the sample solution, 50 μL of ethanol, and 62.5 μL of 0.10 mM DPPH solution. The mixtures were incubated for 30 min at 4 °C in the dark. After the reaction, the absorbance was measured at 520 nm using a multimode microplate reader. The free radical-scavenging activity (%) was calculated using Equation (2).
# Radical-scavenging activity (%):(2) 100−b−b^′/a−a^′×100
# as §1, §2
# a′, b′: Absorbance measured by substituting the buffer for 0.10 mM DPPH.
SMILES,"tyrosinase inhibition rate (mushroom tyrosinase; 800 μg/mL, L-tyrosine substrate, pH 6.5, 37 °C, 10 min, 475 nm) [%]","tyrosinase inhibition, concentration dependence (mushroom tyrosinase; 12.50 to 800 μg/mL, p < 0.05)",tyrosinase inhibition compared with β-arbutin (mushroom tyrosinase; comparable concentrations),"IC50 (mushroom tyrosinase; n = 3, L-tyrosine substrate, pH 6.5, 37 °C, 10 min, 475 nm, molar value printed beside 104.2 µg/mL) [µM]","tyrosinase inhibition IC50 (mushroom tyrosinase; n = 3, L-tyrosine substrate, pH 6.5, 37 °C, 10 min, 475 nm, tested 12.50 to 800 μg/mL) [mg/L]","inhibition of MMP-1 expression (MMP-1; 400 μg/mL, UV 5 J/cm^2, 48 h, CCD-986sk, ELISA, vs UV-treated control) [%]","MMP-1 inhibition compared with TGF-β1 (MMP-1; 400 µg/mL, same experimental conditions, TGF-β1 10 ng/mL)","UV-induced MMP-1 expression (MMP-1; 200–400 μg/mL, vs UV-treated control, p < 0.05)","MMP-1 expression inhibition IC50 (MMP-1; n = 5, UV 5 J/cm^2, 48 h, CCD-986sk, ELISA) [mg/L]","type I procollagen expression, higher than positive control TGF-β1 (type I procollagen; 400 μg/mL, compared with TGF-β1)","increase in type I procollagen expression vs untreated control (type I procollagen; 400 μg/mL, human fibroblasts, ELISA (Procollagen Type I C-Peptide EIA), p < 0.05)","type I procollagen increase compared with TGF-β1 (type I procollagen; 400 µg/mL, same experimental conditions)","type I procollagen expression (type I procollagen; 100–400 μg/mL, p < 0.05)","DPPH radical scavenging rate ([1]; 200 μg/mL, 30 min at 4 °C in the dark, 520 nm) [%]","DPPH scavenging, concentration dependence ([1]; 3.13 to 200 μg/mL, p < 0.05)","DPPH radical scavenging activity ([1]; concentrations above 25 μg/mL, 30 min at 4 °C in the dark, 520 nm)","tyrosinase inhibition IC50 (positive control) (mushroom tyrosinase; tested 31.25 to 500 μg/mL, L-tyrosine substrate, pH 6.5, 37 °C, 10 min, 475 nm) [mg/L]"
"N=C(N)NCCC[C@@H]1NC(=O)[C@H](CO)NC(=O)CNC(=O)[C@H](Cc2ccc(O)cc2)NC(=O)[C@H](CS)NC1=O [CR5, cyclic CYGSR] (cyclo(CYGSR))",97.79,concentration-dependent inhibition,stronger tyrosinase inhibition than β-arbutin,184 ± 9.4,104.2 ± 5.3,73.55,stronger efficacy than TGF-β1,significantly reduced MMP-1 expression,261.3 ± 12.0,approximately 30.12%,approximately 44.68%,stronger efficacy than TGF-β1,promoted type I procollagen expression in a concentration-dependent manner,83.18,concentration-dependent scavenging effects,more than 50%,
"OC[C@H]1O[C@@H](Oc2ccc(O)cc2)[C@H](O)[C@@H](O)[C@@H]1O [β-arbutin, reference compound]",,,,,,,,,,,,,,,,,160.12

# Reference: article PMC12652428, “In Vitro and In Silico Evaluation of a Novel Multifunctional Cyclic Peptide with Antioxidant, Tyrosinase-Inhibitory, and Extracellular Matrix-Modulating Activities” (International Journal of Molecular Sciences, 2025)
